From patent publication US20250195653A1, “MULTIFUNCTIONAL NATURAL KILLER (NK) CELL ENGAGER COMBINATION THERAPY FOR TREATING HEMATOLOGICAL NEOPLASTIC DISORDERS” (SANOFI, priority 2023, published 2025)
“Also recorded” adds a separate entry of the source.

Assays:
MOLM-13 RFP AML cells = test: Incucyte in vitro killing assay with NK effector cells, E:T 1:1; format: cell-based; details: CD123 NKCE 5 ng/mL, AZA 600 nM or VEN 2 nM
Procedure: MOLM-13 RFP cells were generated by infecting MOLM-13 (DSMZ, ACC: 554) with the Incucyte® Nuclight Red Lentivirus (Sartorius #4476) to express a nuclear-restricted mKate2 (red fluorescent protein, RFP). MOLM-13 RFP cells were harvested in the same culture medium used for wild-type cells with the addition of 1 μg/mL of puromycin (Gibco, ref #A11138-03) to maintain the selection pressure.
Human NK cells were purified from PBMCs using MACSxpress® Whole Blood NK Cell Isolation Kit (Miltenyi, ref #130-127-695) according to supplier recommendations. […]
Cytotoxicity was evaluated using the Incucyte live-cells analysis system which allows to quantify the number of live fluorescent target cells over time.
First, 50 μL of CD123 NKCE and its isotype control were distributed in the appropriate wells of an F-bottom (flat-bottom) 96-well plate coated with poly-D-lysine (Greiner BioOne ref #655946). CD123 NKCE was tested at 5 ng/mL, while its isotype was evaluated at the highest concentration of 100 ng/ml. […]
The growth/proliferation of MOLM-13 RFP tumor cells was monitored by cell imaging up to 64 h using the Incucyte® S3 with standard scans every 4 h. […] Tumor cells growth/proliferation was calculated by counting the number of red cells at each time point, which was then normalized to the number of cells at time zero and expressed as a percentage.

NK cells [1] = test: NK cell viability after treatment with AZA or VEN; format: cell-based, human; details: 0.01 nM to 10 μM, 48 h, 3 independent NK donors
Procedure: (§1) Human NK cells were purified from PBMCs using MACSxpress® Whole Blood NK Cell Isolation Kit (Miltenyi, ref #130-127-695) according to supplier recommendations. NK cells were then cultured in complete medium at 5×10^6 cells/mL at +37° C. at 5% CO2 (so called “resting” NK cells) overnight before being used in the activation assay.
(§2) Of these serial dilutions 100 μL of VEN (single agent) was added to each well that contains 100 μL of cell suspension to obtain a final concentration of 10, 1, 0.1, 0.01, 0.001, 0.0001, 0.00001 μM in a final volume of 200 μL/well.
Following the proper timing of incubation (from 6 h to 72 h), 0.05×10^6 cells/well MOLM-13 and NK cells in 96-well round bottom plates (Corning® Costar® Ultra-Low Attachment Multiple 96-Well Plate; Thermo Scientific, Denmark, ref #7007) were centrifuged at 300 g for 5 minutes at RT. Supernatant was aspirated and Tampon Running Buffer (Miltenyi, ref #130-091-2221) or the antibodies were added to the cell pellets (50 μL/well). In addition, 1 μL of each antibody was used to stain the compensation beads. The cells and the beads were incubated for 20 minutes at 4° C. […]
(§3) Finally, 100 μL/well of PBS were added before reading the plate by MACSQuant Analyzer 16 Flow Cytometer. The propidium iodide (PI) marker of viability was added to every well reading at 1/10 dilution.

[2] = system: CD123-positive MOLM-13 AML cell line; test: 5-azacytidine and venetoclax flow cytometry cytotoxic assay, 48 h; format: cell-based
Procedure: The MOLM-13 cell line (DSMZ ACC 554) is an acute myeloid leukemia cell line. These cells are mostly round cells growing in suspension. For maintenance, cells were resuspended in fresh RPMI1640 medium supplemented with 10% Fetal Bovin Serum (FBS; Biowest, ref #S140H-100) and 2 mM L-Glutamine (Gibco, ref #25030-024) referred as complete culture medium at 0.3×10^6 cells/mL for 3 or 4 days.
On the day of the assay, the product was thawed and vortexed to eliminate potential aggregates before cascade dilution. A first dilution of 1/100 was performed in complete culture medium. Then, a dilution range from 20 μM (twice concentrated) to 20 pM (1/10 serial dilution) was performed in complete culture medium to assess the concentration-dependent effect of the single agent.
Similarly, stock solution of VEN was stored in complete culture medium at 4° C. On the day of the assay, the product was vortexed to eliminate potential aggregates before cascade dilution. A dilution range from 20 μM (twice concentrated) to 20 pM (1/10 serial dilution) was performed in complete culture medium to assess the concentration-dependent effect of the single agent.
as §2
CD123-positive MOLM-13 target cells were counted the day of the assay and the amount of cell needed for the experiment was evaluated. Target cells were seeded at 0.05×10^6 cells/50 μL of complete culture medium per well.
In the meantime, compound seral dilutions or the four defined concentrations were prepared and added to a U-bottom 96-well plate (100 μL/well). As controls, target cells alone without drugs, were cultured at the same concentration in complete culture medium (200 μL/well). Each condition was performed in monoplicate.
Culture plates were incubated at 37° C. in the presence of 5% CO2 for 48 h. The plates were centrifuged at 300 g for 5 minutes at RT and resuspended in 100 μL of PBS to the following reading by MACSQuant Analyzer 16 Flow. The marker of viability PI was added to every well reading at dilution 1/10.

CD16a on NK cells = test: CD16a expression on NK cells by flow cytometry; format: cell-based, human; details: 1 μM AZA or 1 nM VEN
Procedure: as §1
(§4) Following the proper timing of incubation (from 6 h to 72 h), 0.05×10^6 cells/well MOLM-13 and NK cells in 96-well round bottom plates (Corning® Costar® Ultra-Low Attachment Multiple 96-Well Plate; Thermo Scientific, Denmark, ref #7007) were centrifuged at 300 g for 5 minutes at RT. Supernatant was aspirated and Tampon Running Buffer (Miltenyi, ref #130-091-2221) or the antibodies were added to the cell pellets (50 μL/well). In addition, 1 μL of each antibody was used to stain the compensation beads. The cells and the beads were incubated for 20 minutes at 4° C. Two consecutive washing steps were performed by adding 150 and then 200 μL of Tampon Running Buffer in the wells followed by centrifugation at 300 g for 5 minutes at 4° C.
as §3

NKp46 on NK cells = test: NKp46 expression on NK cells by flow cytometry; format: cell-based, human; details: 1 μM AZA or 1 nM VEN
Procedure: as §1, §4, §3

MOLM-13 cells = test: MOLM-13 cell viability over 72 h and 6 days with AZA or VEN (flow cytometry); format: cell-based
Procedure: as §4, §3

NK cells [3] = test: NK cell phenotype in the presence of AZA or VEN; format: cell-based, human; details: AZA or VEN at defined concentrations (1 μM AZA, 1 nM VEN, 48 h)
Procedure: as §1, §4, §3

CD123 on MOLM-13 cells = test: CD123 expression on MOLM-13 cells by flow cytometry; format: cell-based; details: for CD123 expression level (MedFI) on MOLM-13 cells: 0.01 nM to 10 μM; for CD123 expression (median fluorescence intensity) on MOLM-13 cells: 1 nM and 1 μM, 6 h, 24 h or 48 h, MOLM-13 alone or with NK cells from two donors; for CD123 target expression on MOLM-13 AML tumor cells (conclusion): at the tested concentrations, up to 6 days of treatment
Procedure: as §4, §3
(§5) Finally, NK cell at effector:target (E:T) ratio of 1:1 (thus 0.05×10^6 cells/well) were incubated with MOLM-13 cell line at 37° C. in the presence of 5% CO2. After 6 h, 24 h, or 48 h, plates were centrifuged at 300 g for 5 minutes at RT. The Tampon Running Buffer or the selected antibodies were added to the cell pellets (50 μL/well) to assess cell viability and to perform the flow cytometry-based staining.

[4] = at the dose of 400 mg; cited from earlier work
[5] = system: CD123-positive MOLM-13 cells; test: 5-azacytidine and venetoclax cytotoxic assays in the absence or presence of NK cells (6 h, 24 h, 48 h); format: cell-based; details: VEN 1 μM
Procedure: as §5

[6] = cited from earlier work

Row | Structure (SMILES) | target cell lysis, single agent (MOLM-13 RFP AML cells) | NK cell viability (NK cells [1]) | CD16a expression level on NK cells (CD16a on NK cells) | NKp46 expression level on NK cells (NKp46 on NK cells) | impact on NK cell phenotype (NK cells [3]) | CD123 expression level (MedFI) on MOLM-13 cells (CD123 on MOLM-13 cells; 48 h) | CD123 expression (median fluorescence intensity) on MOLM-13 cells (CD123 on MOLM-13 cells) | CD123 target expression on MOLM-13 AML tumor cells (conclusion) (CD123 on MOLM-13 cells) | further results
1 | Nc1ncn([C@@H]2O[C@H](CO)[C@@H](O)[C@H]2O)c(=O)n1 [AZA, 4-amino-1-beta-D-ribofuranosyl-s-triazin-2 (1H)-one] | increased target cell lysis; also recorded: some target lysis | did not negatively impact; also recorded: no cytotoxic effect | no impact | no impact | minimal impact | minimal impact | did not impact | minimal impact | MOLM-13 AML cell viability ([2]; AZA at high concentration (10 μM), 48 h): strongly decreased; also recorded: cytotoxic activity; MOLM-13 AML cell viability ([2]; AZA at lower concentrations, 48 h, compared to non-treated control): No effect; MOLM-13 cell viability (MOLM-13 cells; AZA 600 nM and 3 μM): did not affect; CD123 median of fluorescence intensity (MedFI) on MOLM-13 cells (CD123 on MOLM-13 cells; AZA at 1 and 10 μM, 48 h): slight decrease
2 | CC1(C)CCC(CN2CCN(c3ccc(C(=O)NS(=O)(=O)c4ccc(NCC5CCOCC5)c([N+](=O)[O-])c4)c(Oc4cnc5[nH]ccc5c4)c3)CC2)=C(c2ccc(Cl)cc2)C1 [VEN] | increased target cell lysis; also recorded: some target lysis | did not negatively impact; also recorded: no cytotoxic effect | no impact | no impact | minimal impact | mild reduction | did not impact | minimal impact | plasma concentration [4]: 2000 nM; MOLM-13 cell viability, concentration-dependent response ([2]; VEN 0.01 nM to 10 μM, 48 h): impact on MOLM-13 cell viability from 10 nM to 10 μM; killing activity as a single agent ([2]; VEN at its plasma concentration, 2 μM): very strong killing activity; killing potential on MOLM-13 cells [5]: enhanced killing potential; impact on MOLM-13 cell viability ([5]; 6 h): no impact; impact on MOLM-13 cell viability ([5]; 24 h): moderate; impact on MOLM-13 cell viability ([5]; 48 h): strong impact; MOLM-13 viability (MOLM-13 cells; VEN 2, 5 and 10 nM): impacted MOLM-13 viability mainly after 6 days; aqueous solubility [6]: very low
